Here are results for eight compounds from US20010044449A1, “REMEDIES FOR DRUG ADDICTION” (priority 1997, published 2001).

Where a name gives a salt, the structure may show the parent alone. Marks after values point to notes of the source that are not given here.

Data set [1] relates to Sprague Dawley strain (SD strain) male rats. Briefly: Conditioned place preference (CPP) method, psychic dependence induced by cocaine.
Data set [2] has the same test system. Briefly: Conditioned place preference (CPP) method, psychic dependence induced by morphine. The note with it: for Psychic dependence and aversion of compound alone (period in drug- or solvent-conditioned box): compound alone vs solvent control group.
For data set [3], the system named is ddY strain male mouse. Briefly: Naloxone-induced withdrawal syndrome in morphine-dependent mouse (physical dependence). The data set is classed as in vivo. Particulars: for Blepharoptosis: numbers of mouse manifesting withdrawal syndrome/numbers of total mouse / Diarrhea: numbers of mouse manifesting withdrawal syndrome/numbers of total mouse / Fore paw tremor: numbers of mouse manifesting withdrawal syndrome/numbers of total mouse / Jumping: numbers of mouse manifesting withdrawal syndrome/numbers of total mouse / Rearing: numbers of mouse manifesting withdrawal syndrome/numbers of total mouse / Wobbling: numbers of mouse manifesting withdrawal syndrome/numbers of total mouse: naloxone 3 mg/kg.

Data set [4] has as its system Rats. Briefly: Cocaine drug discrimination test (feeding behavior with lever pressing). The data set is classed as in vivo, rat.
Data set [5] has as its system SD strain male rats. Briefly: Mecamylamine-induced nicotine withdrawal aversion (CPP operant boxes). Format: in vivo, rat. As to the method:
Animals used were SD strain male rats in this experiment. Experiments used were CPP operant boxes. Experiments were performed by using an aversive model in a nicotine withdrawal syndrome induced by mecamylamine, that is, a nicotine receptor antagonist. (Tsutomu Suzuki, Molecular Medicine, 32, 140 (1995); Suzuki, T. et al., Eur. J. Pharm., 314, 281 (1996); Maldonado, R. et al., J. Pharmacol. Exp. Ther., 261, 669 (1992)). Mini-osmotic pump (Alzet 2001) injected with nicotine (1 μl/hr, for seven days) was implanted under dorsal skin of the rats. An aqueous solution at a concentration of 121.4 mg/ ml was prepared so that a nicotine dose was adjusted to 10 mg/kg/day. Then, the aqueous solution was filled into the mini-osmotic pump. The rats were given conditioning training by the following counter-balance method. In the morning of the seventh day after the implantation of the mini-osmotic pump, mecamylamine (1 mg/ml), that is, nicotine receptor antagonist or physiological saline was subcutaneously injected. Then, the rats were placed in one compartment for 60 minutes. […] The periods in which the rats remained in each compartment colored white or black were measured for 15 minutes.

The subject of data set [6] is dopamine release in the nucleus accumbens. Briefly: High K+ stimulated dopamine release from nucleus accumbens slices (HPLC-ECD). The data set is classed as cell-based. The note with it: rat nucleus accumbens slices, 20 mM high K+ stimulation; FIG. 11.
Data set [7] has as its system rats with nicotine dependence. Particulars: Malin et al. 1993; cited from earlier work.
In data set [8] the test system is chronic smokers. Particulars: for three hours, double blind and cross-over test vs placebo; Karras et al. 1980; cited from earlier work.
The mark [9] stands for this setting: cocaine 10 mg/kg i.p. in combination with compound 0.1 mg/kg s.c., FIGS. 5 and 6.
Where [10] appears, read: morphine 3 mg/kg s.c. in combination with compound 0.1 mg/kg s.c., FIGS. 1 and 2.
[11] abbreviates: Compound 3 0.003 mg/kg s.c. with morphine.
Where [12] appears, read: Compound 3 0.01 mg/kg s.c. with morphine.
The mark [13] stands for this setting: Compound 3 0.03 mg/kg s.c. with morphine.

“17-(cyclopropylmethyl)-3,14β-dihydroxy-4,5α-epoxy-6β-[N-methyl-trans-3-(methoxycinnamide) morphinan tartrate [Compound 5]”: in data set [1] (setting [9]), the “Development of drug dependence induced by cocaine (period rats remained in drug-conditioned box)” value is on record as “inhibited the development of drug dependence induced by cocaine”. The “Psychic dependence and aversion of compound alone (period in drug- or solvent-conditioned box)” value (from here on “Psychic dependence and aversion”) in data set [1] is “did not produce psychic dependence and aversion”.
With `CN(C(=O)C#Cc1ccc(C(F)(F)F)cc1)[C@@H]1CC[C@@]2(O)[C@H]3Cc4ccc(O)c5c4[C@@]2(CCN3CC2CC2)[C@H]1O5.O=C(O)/C=C\C(=O)O` [Compound 1, 17-(cyclopropylmethyl)-3,14β-dihydroxy-4,5α-epoxy-6β-[N-methyl-3-(4-trifluoromethylphenyl)propiolamide] morphinan maleate], the “Psychic dependence and aversion” value in data set [2] is “did not develop psychic dependence and aversion”; in data set [1], “did not produce psychic dependence and aversion”. The “Development of drug dependence caused by morphine (period rats remained in drug-conditioned box)” value in data set [2] (setting [10]) is reported as “inhibited the development of drug dependence caused by morphine”. Also, in data set [1] (cocaine 4 mg/kg i.p. in combination with Compound 1 0.2 mg/kg i.p., FIG. 7), the “Development of drug dependence induced by cocaine (period rats remained in drug-conditioned box)” value is on record as “inhibited the development of drug dependence induced by cocaine”.
On to `Cc1cccc(/C=C/C(=O)N(C)[C@@H]2CC[C@@]3(O)[C@H]4Cc5ccc(O)c6c5[C@@]3(CCN4CC3CC3)[C@H]2O6)c1` [Compound 2, 17-(cyclopropylmethyl)-3,14β-dihydroxy-4,5α-epoxy-6β-(N-methyl-3-methylcinnamide) morphinan hydrochloride], for which the “Psychic dependence and aversion” value in data set [2] was “did not develop psychic dependence and aversion”. For the same compound, in data set [2] (setting [10]), the “Development of drug dependence caused by morphine (period rats remained in drug-conditioned box)” value is reported as “inhibited the development of drug dependence caused by morphine”.
For the compound `CN(C(=O)/C=C/c1ccoc1)[C@@H]1CC[C@@]2(O)[C@H]3Cc4ccc(O)c5c4[C@@]2(CCN3CC2CC2)[C@H]1O5` [Compound 3, 17-(cyclopropylmethyl)-3,14β-dihydroxy-4,5α-epoxy-6β-[N-methyl-trans-3-(3-furyl)acrylamide] morphinan hydrochloride], the “Incidence rates of jumping, shaking, and diarrhea” value in data set [3] (0.03 mg/kg, compared with morphine alone group) is given as “significantly decreased”. In addition, in data set [3] (0.01 or 0.03 mg/kg, compared with morphine alone group, FIG. 4), the “Body weight reduction (withdrawal)” value is reported as “significant suppression of body weight reduction”. In data set [3] (setting [11]), the “Blepharoptosis: numbers of mouse manifesting withdrawal syndrome/numbers of total mouse” value is recorded as 10/10, the “Diarrhea: numbers of mouse manifesting withdrawal syndrome/numbers of total mouse” value is on record as 7/10, the “Fore paw tremor: numbers of mouse manifesting withdrawal syndrome/numbers of total mouse” value is on record as 9/10 and the “Jumping: numbers of mouse manifesting withdrawal syndrome/numbers of total mouse” value is given as 3/10. In addition, in data set [3] (setting [11]), the “Rearing: numbers of mouse manifesting withdrawal syndrome/numbers of total mouse” value is 10/10 and the “Wobbling: numbers of mouse manifesting withdrawal syndrome/numbers of total mouse” value was 7/10. For the same compound, in data set [3] (setting [12]), the “Blepharoptosis: numbers of mouse manifesting withdrawal syndrome/numbers of total mouse” value is given as 10/10, the “Diarrhea: numbers of mouse manifesting withdrawal syndrome/numbers of total mouse” value is on record as 6/10, the “Fore paw tremor: numbers of mouse manifesting withdrawal syndrome/numbers of total mouse” value was 10/10 and the “Jumping: numbers of mouse manifesting withdrawal syndrome/numbers of total mouse” value was 5/10. Besides, in data set [3] (setting [12]), the “Rearing: numbers of mouse manifesting withdrawal syndrome/numbers of total mouse” value is 7/10 and the “Wobbling: numbers of mouse manifesting withdrawal syndrome/numbers of total mouse” value is 5/10. Moreover, in data set [3] (setting [13]), the “Blepharoptosis: numbers of mouse manifesting withdrawal syndrome/numbers of total mouse” value was 10/10, the “Diarrhea: numbers of mouse manifesting withdrawal syndrome/numbers of total mouse” value is on record as 3/10*, the “Fore paw tremor: numbers of mouse manifesting withdrawal syndrome/numbers of total mouse” value was 7/10 and the “Jumping: numbers of mouse manifesting withdrawal syndrome/numbers of total mouse” value is reported as 3/10*. For the same compound, in data set [3] (setting [13]), the “Rearing: numbers of mouse manifesting withdrawal syndrome/numbers of total mouse” value is 8/10 and the “Wobbling: numbers of mouse manifesting withdrawal syndrome/numbers of total mouse” value is recorded as 3/10*. The Naloxone-induced withdrawal syndrome result in data set [3] (simultaneous administration with morphine, 0.003-0.03 mg/kg s.c.) was “relieved by the simultaneous administration of Compound 3 in a dose-dependent manner”. Further, in data set [4] (Compound 3 10 μg/kg with cocaine 1.25, 2.5, or 5 mg/kg vs saline + cocaine, FIG. 8), the “Rates of feeding behavior with lever pressing (cocaine discrimination)” value was “significantly decreased”. Moreover, the “Inhibitory effect of cocaine discrimination” value in data set [4] (Compound 3 20 μg/kg with cocaine, compared with 10 μg/kg) is recorded as “enhanced”. The “Aversive effect induced by mecamylamine (nicotine withdrawal)” value in data set [5] (pretreatment 30 μg/kg vs physiological saline pretreatment) was “significantly inhibited the aversive effect”. Besides, in data set [5] (pretreatment 10 or 30 μg/kg s.c., 30 minutes before mecamylamine, FIG. 10), the “Aversive effect induced by mecamylamine (nicotine withdrawal)” value is given as “inhibited by the pretreatment with Compound 3 (10 or 30 μg/kg) in a dose dependent manner”. In data set [6], the “Dopamine release in the nucleus accumbens” value was “inhibited dopamine release in the nucleus accumbens”. For the same compound, in data set [2], the “Psychic dependence and aversion” value was “did not produce psychic dependence and aversion”. The “Development of drug dependence caused by morphine (period rats remained in drug-conditioned box)” value in data set [2] (morphine 5 mg/kg s.c. in combination with Compound 3 0.1 or 0.03 mg/kg s.c., FIG. 3) is given as “inhibited the development of drug dependence caused by morphine”.
`Cc1cccc(C#CC(=O)N(C)[C@@H]2CC[C@@]3(O)[C@H]4Cc5ccc(O)c6c5[C@@]3(CCN4CC3CC3)[C@H]2O6)c1` [Compound 4, 17-(cyclopropylmethyl)-3,14β-dihydroxy-4,5α-epoxy-6β-[N-methyl-3-(3-methylphenyl)propiolamide] morphinan hydrochloride]: the “Development of drug dependence induced by cocaine (period rats remained in drug-conditioned box)” value in data set [1] (setting [9]) is given as “inhibited the development of drug dependence induced by cocaine”. Moreover, the “Psychic dependence and aversion” value in data set [1] is “did not produce psychic dependence and aversion”.
In the case of `CN1CC[C@]23c4c5ccc(O)c4O[C@H]2[C@@H](O)C=C[C@H]3[C@H]1C5` [morphine, reference compound], the “Withdrawal syndrome after naloxone administration” value in data set [3] (morphine alone 8 to 45 mg/kg s.c. twice a day for five days, naloxone 3 mg/kg s.c.) is “withdrawal syndrome was recognized”. Further, the “Withdrawal syndrome in rats with nicotine dependence” value in data set [7] is given as “inhibits the withdrawal syndrome”.
For `C=CCN1CC[C@]23c4c5ccc(O)c4O[C@H]2C(=O)CC[C@@]3(O)[C@H]1C5` [naloxone], the “Intake of tobacco of chronic smokers” value in data set [8] is “effective for a reduction in intake of tobacco”. The “Withdrawal syndrome in rats with nicotine dependence” value in data set [7] was “accelerates a withdrawal syndrome”.
Take `Oc1ccc2c3c1O[C@H]1c4[nH]c5c(c4C[C@@]4(O)[C@@H](C2)N(CC2CC2)CC[C@]314)C[C@@]1(O)[C@H]2Cc3ccc(O)c4c3[C@@]1(CCN2CC1CC1)[C@H]5O4` [nor-BNI, norbinaltorphimine, reference compound]: the “Antagonism of the inhibitory effect of cocaine discrimination of Compound 3” value in data set [4] (nor-BNI pretreatment, Compound 3 0.02 mg/kg + cocaine, FIG. 9) is recorded as “antagonized”. The “Antagonism of the inhibitory effect caused by Compound 3” value in data set [2] (pretreatment 3 mg/kg, morphine 5 mg/kg s.c. + Compound 3 0.03 mg/kg s.c.) is on record as “significantly antagonized”.
